Measured values: patent publication US20140349922A1 (priority 2011, published 2014)

Columns and labels:
[1] = Diet-induced obesity mice model, Study 1: body weight and food intake; type: in vivo, C57BL/6J mice; conditions: SC, 7 days dosing, OXM 5000 nmol/kg b.i.d; for Body weight loss on Day 8 compared to control group: PEG40-FMS-OXM 5000 nmol/kg Days 1, 3, 5, 7, Sibutramine 20 mg/kg b.i.d
Experimental: Data are adjusted means (n=10). SEMs are calculated from the residuals of the statistical model. Mice were dosed for 7 days started on Day 1. […] Significant differences vs. appropriate vehicle: *p<0.05, **p<0.01, ***p<0.001. Percentage values indicate difference from appropriate vehicle group on Day 8 (i.e. after 7 days dosing).
Measurements of body weight and food intake were performed daily until Day 8. The final measurement of body weight was carried out on Day 12.
Body weight and food intake are expressed as mean values±SEM.

[2] = DIO mice, fasting glucose and fasting insulin after single dose, experiment #2 (Example 7); type: in vivo; conditions: experiment #2, day 2; PEG-OXM single SC 6000 nmol/kg; Liraglutide 200 μg/kg bid
Experimental: (§1) On the morning of day 1 the mice were dosed followed by an overnight fasting. On days 2, 24 h following administration (groups A-E) or prior to the morning dosing (groups F-H), the mice were sampled for fasting glucose and fasting insulin.
The second experiment included 7 groups (n=7) of DIO mice that were dosed for 2 days as follows: […]

[3] = DIO mice, fasting glucose and fasting insulin after single dose, experiment #1 (Example 7); type: in vivo; conditions: experiment #1, day 2
Experimental: as §1
In this set of experiments two independent in vivo studies were carried out. The first experiment included 8 groups (n=8) of DIO mice that were dosed for 2 days as follows: […]

[4] = DIO mouse model, 29 days dosing (Example 6): body weight; type: in vivo, C57BL/6J mice; conditions: SC 6,000 nmol/kg; PEG conjugates weekly, native OXM twice per day
[5] = target: CHO-K1 cells over-expressing GLP-1 receptor (Homo sapiens, UniProt P43220); conditions: rat serum 1%
CHO-K1 cells over-expressing GLP-1 receptor, sequence (P43220 24-463): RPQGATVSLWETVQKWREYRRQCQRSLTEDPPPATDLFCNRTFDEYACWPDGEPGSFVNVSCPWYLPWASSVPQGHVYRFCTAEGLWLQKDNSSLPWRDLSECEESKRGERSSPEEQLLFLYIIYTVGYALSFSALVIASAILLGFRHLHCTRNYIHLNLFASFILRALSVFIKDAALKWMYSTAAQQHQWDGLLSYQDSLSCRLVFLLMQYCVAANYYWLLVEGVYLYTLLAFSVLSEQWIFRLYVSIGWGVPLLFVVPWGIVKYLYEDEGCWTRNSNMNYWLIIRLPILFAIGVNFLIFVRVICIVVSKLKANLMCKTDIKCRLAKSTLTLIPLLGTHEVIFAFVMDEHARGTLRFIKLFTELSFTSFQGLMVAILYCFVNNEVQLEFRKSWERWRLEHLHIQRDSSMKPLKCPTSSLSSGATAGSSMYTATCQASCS
Experimental: Cells cAMP concentrations were quantified by HTRF assay (Cisbio 62AM4PEB) and EC50 parameter was analyzed by PRISM software.
Cells' cAMP concentrations were quantified by HTRF assay (Cisbio 62AM4PEB), and the EC50 parameter was analyzed by PRISM software.

[6] = IP glucose tolerance test (IPGTT); type: in vivo, C57BL/6 mice; conditions: OXM and PEG40-EMCS-OXM 333 nmol/kg 15 min before glucose, PEG40-Fmoc-OXM […] peptide content 2 hrs before, vs vehicle
Experimental: Blood glucose levels were measured by tail vein sampling prior to glucose administration and 10, 20, 30, 60 and 120 min after glucose administration using a handheld glucometer.
Blood glucose levels were measured by tail vein sampling prior to glucose administration and 10, 20, 30, 60 and 120 min after to glucose administration using a handheld glucometer.

[7] = single SC 6,000 nmol/kg (OXM b.i.d)

| Compound | Body weight loss on Day 8 compared to control group [1] [%] | Fasted plasma insulin level [2] [ng/mL] | Fasting glucose level [2] [mM] | Fasting glucose level ([3]; PEG-OXM single SC 6,000 nmol/kg on day 1, Liraglutide 200 μg/kg b.i.d) [mM] | Fasted plasma insulin level ([3]; PEG-OXM single SC 6,000 nmol/kg, Liraglutide 200 μg/kg b.i.d) [ng/mL] | Weight loss during a 30-day period [4] [%] | cAMP activity after incubation in rat serum versus without serum [5] | Fasting glucose compared to vehicle [3, 7] | Fasting plasma insulin compared to controls [3, 7] | Induction of glucose tolerance (blood glucose after IP glucose 1.5 gr/kg) [6] | Inhibition of food intake ([1]; PEG40-FMS-OXM 5000 nmol/kg every other day) |
| --- | --- | --- | --- | --- | --- | --- | --- | --- | --- | --- | --- |
| CC(C)CC(N(C)C)C1(c2ccc(Cl)cc2)CCC1 (stereo not drawn) [Sibutramine] | 15.6 |  |  |  |  |  |  |  |  |  |  |
| CCCCCCCCCCCCCCCC(=O)N[C@@H](CCC(=O)NCCCC[C@H](NC(=O)[C@H](C)NC(=O)[C@H](C)NC(=O)[C@H](CCC(N)=O)NC(=O)CNC(=O)[C@H](CCC(=O)O)NC(=O)[C@H](CC(C)C)NC(=O)[C@H](Cc1ccc(O)cc1)NC(=O)[C@H](CO)NC(=O)[C@H](CO)NC(=O)[C@@H](NC(=O)[C@H](CC(=O)O)NC(=O)[C@H](CO)NC(=O)[C@@H](NC(=O)[C@H](Cc1ccccc1)NC(=O)[C@@H](NC(=O)CNC(=O)[C@H](CCC(=O)O)NC(=O)[C@H](C)NC(=O)[C@@H](N)Cc1cnc[nH]1)[C@@H](C)O)[C@@H](C)O)C(C)C)C(=O)N[C@@H](CCC(=O)O)C(=O)N[C@@H](Cc1ccccc1)C(=O)N[C@H](C(=O)N[C@@H](C)C(=O)N[C@@H](Cc1c[nH]c2ccccc12)C(=O)N[C@@H](CC(C)C)C(=O)N[C@H](C(=O)N[C@@H](CCCNC(=N)N)C(=O)NCC(=O)N[C@@H](CCCNC(=N)N)C(=O)NCC(=O)O)C(C)C)[C@@H](C)CC)C(=O)O [Liraglutide] |  | 3 | 6.7 | 6.06 | 4.4 |  |  |  |  |  |  |
| Oxyntomodulin [OXM] | 6 |  |  |  |  | 17 | reduced activity | did not show any significant difference | did not show any significant difference | minor effect on the glucose tolerance | statistically significant inhibition of food intake |
